{"source": "paper PMC11661381", "about": "“Covalent-fragment screening identifies selective inhibitors of multiple Staphylococcus aureus serine hydrolases important for growth and biofilm formation” (Research Square, 2024)", "key": {"[1]": {"biological_target": "T1, Fph enzymes in live S. aureus cells (USA300) (Staphylococcus aureus, UniProt Q2FDS6)", "T1 construct": "endogenous in cells; host or cells: live S. aureus USA300 (LAC) wild-type cells", "experiment": "Competition of FP-alkyne labeling in live S. aureus cells", "type": "cell-based", "settings": "live cells, doses 5–100 μM, 120 min preincubation", "description": "(§1) One colony of each of S. aureus wild-type and transposon mutants fphB::Tn, fphE::Tn and fphH::Tn picked from growth on a Tryptic soya agar plate were inoculated in 5 mL of Tryptic soya broth (TSB). The overnight bacterial cultures were spun down at 5,000 g for 10 min and pellet was collected. The pellets were washed twice in 1X PBS buffer and resuspended in the same buffer. Cells were first preincubated with the indicated concentrations of inhibitors for 2hr at 37°C. The cells were washed twice with 1X PBS buffer. The resuspended pellets were incubated with Fluorophosphonate-alkyne (FP-alkyne) for 30 min at 37°C. Cells were washed again twice with 1X PBS buffer and resuspended in with 1X PBS and 0.1% Triton–X and lysed by beat beating at 4°C. Next, lysed cells (20 μL) were mixed with 2.16 μL of freshly prepared click mix (0.5 μL of 50 mM CuSO4 in H2O, 1.16 μL of 100 mM BTTAA in DMSO, and 0.5 μL of N3-Cy5 in DMSO) and 1.16 μL of 300 mM sodium ascorbate solution in H2O and incubated at 37 °C for 30 min. Next step, 20 μL of 4X SDS loading buffer was added in each sample and boiled at 100 °C for 10 min. The processed samples were allowed to cool and analyzed by SDS-PAGE (12%) running at 120 V in an electrophoresis chamber. Cy5 fluorescence was imaged using the Cy5 channel on a Typhoon 9410 Imager (Amersham Biosciences)."}, "[2]": {"test_system": "Fph enzymes in live S. aureus cells (USA300)", "experiment": "Competition of FP-alkyne labeling in live S. aureus cells", "type": "cell-based, Staphylococcus aureus", "settings": "100 μM compound, live S. aureus cells", "description": "as §1"}, "[3]": {"biological_target": "T2, rFphE (Staphylococcus aureus, UniProt Q2FDS6)", "T2 construct": "otherwise full-length FphE (Uniprot ID Q2FDS6) and FphH (A0A0H2XJL0) proteins; His6 (3C-cleavable, pETNKI-his-3C-LIC vector) (N); made in house; E. coli is inferred from the pET28a-type vector, IPTG induction and LB/kanamycin", "T2 sequence (Q2FDS6 1-276)": "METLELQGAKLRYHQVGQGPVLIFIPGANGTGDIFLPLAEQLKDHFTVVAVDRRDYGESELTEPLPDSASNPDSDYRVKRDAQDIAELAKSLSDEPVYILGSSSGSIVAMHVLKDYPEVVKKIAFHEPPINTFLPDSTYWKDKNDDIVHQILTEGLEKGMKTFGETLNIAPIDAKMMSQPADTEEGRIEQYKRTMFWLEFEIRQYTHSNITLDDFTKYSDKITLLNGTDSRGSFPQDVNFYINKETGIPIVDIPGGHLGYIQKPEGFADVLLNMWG", "experiment": "FP-Cy5 active site labeling competition of recombinant protein, rFphE", "type": "binding", "description": "For activity-based protein labeling experiments, 500 nM of rFphB, rFphE and rFphH in 1X PBS and 0.1% Triton–X were preincubated with different concentrations of inhibitors or DMSO for 2hr at room temperature, followed by adding 300 nM of fluorophosphonate (FP) alkyne and incubated for 30 min at room temperature. Next, 20 μL of the reaction volume were mixed with 2.16 μL of freshly prepared click mix (0.5 μL of 50 mM CuSO4 in H2O, 1.16 μL of 100 mM BTTAA in DMSO, and 0.5 μL of N3-Cy5 in DMSO) and 1.16 μL of 300 mM sodium ascorbate solution in H2O. Samples were incubated at 37°C for 30 min, boiled in SDS loading buffer and analyzed by SDS–PAGE. Cy5 fluorescence was imaged using the Cy5 channel on a Typhoon 9410 Imager (Amersham Biosciences)."}}}
{"smiles": "OB(O)c1csc2ccccc12", "note": "[Z27, Benzo[b]thiophen-3-ylboronic acid]", "values": [{"measurement": "concentration completely inhibiting FphE labeling", "setting": "[1]", "result": "≥ 50", "unit": "µM"}, {"measurement": "competition of FP labeling in live cells (in words)", "setting": "[2]", "result": "only blocked FP labeling of FphE in live cells"}, {"measurement": "concentration inhibiting FP-Cy5 labeling of rFphE", "setting": "[3]", "result": "> 50", "unit": "µM"}]}
